Test results published in patent EP0412158A1, “ONCOSTATIC DRUG” (priority 1987, dated 1988).
Several values for one entry are separate records, joined by “and”; a condition that tells them apart may be missing. Identical values can stand only once. Like-named read-outs stand apart in the source and are kept apart here.

Tests used:
[1] = system: methyl cholanthrene A tumor; assay: Antineoplastic activity against transplanted methyl cholanthrene A tumor, evaluation by size of tumor (Examples 1 to 6); format: in vivo, female BALB/C mice; conditions: for Average weight of tumor / Number of tumorless mice /total number of mice / Change in body weight / T/control: ip×9; for Change in body weight: body weight 13 days after transplantation; for T/control: tumor weight
Protocol: By dissolving alkylammonium salt of polymolybdic acid [NH3C3H7(iso)]s [Mo7O24] • 3H2O (Compound A) and other compounds (Compounds B to D) severally in distilled water, aqueous solutions containing the compounds in a fixed concentration of 10 mg/ml were obtained. These aqueous solutions were administered to female BALB/C mice (five weeks old) to which methyl cholanthrene A tumor had been transplanted to test the compounds for antineoplastic activity. To be specific, methyl cholanthrene A was transplanted to the mice in a ratio of 1.0 x 10^5 cells per mouse and the aqueous solutions were continuously administered to the mice by intraperitoneal injection ([…]) for nine days. On elapse of 14 days following the start of the administration, the tumors in the mice were measured. For comparison, mice to which no antineoplastic .drug was administered and mice to which aminonitroso urea was administered were tested by following the procedure described above.

methyl cholanthrene A = assay: Methyl cholanthrene A tumor, evaluation by extension of period of survival (Examples 7 to 11); format: in vivo, female BALB/C mice; conditions: for Change in body weight: ip×9, D1~D9
Protocol: The aforementioned compounds, A to D, were severally dissolved in distilled water to obtain aqueous solutions containing the compounds in a fixed concentration of 10 mg/ml. To the female BALB/C mice (five weeks old) to which methyl cholanthrene A had been transplanted in a ratio of 1.0 x 10^5 cells per mouse, […] to determine the mices' periods of survival. For comparison, mice to which no antineoplastic drug was administered and mice to which aminonitroso urea was administered were similarly tested.

[2] = system: methyl cholanthrene A tumor; assay: Methyl cholanthrene A tumor, evaluation by size of tumor (Examples 31 to 33); format: in vivo, female BALB/C mice
Protocol: A heteropoly acid salt, Na5[IM06O24]•34H2O (Compound M), and other compounds (Compounds N and O ) were severally dissolved in distilled water to obtain aqueous solutions containing the salts in a fixed concentration of 10 mg/ml. To female BALB/C mice (five weeks old) to which methyl cholanthrene A tumor had been transplanted, the aqueous solutions were administered to test the compounds for antineoplastic activity. To be specific, the methyl cholanthrene A was transplanted to the mice at a ratio of 1.0 x 10^5 cells per mouse and the aqueous solutions were administered ([…]) for 9 consecutive days by intraperitoneal injection. On elapse of 14 and 21 days after the stop of the administration, the sizes of tumors in the mice were measured. For comparison, mice to which no aqueous solution was administered and mice to which aminonitrosourea was administered were similarly tested.

MM-46 breast cancer = format: in vivo, female C3H/He mice; conditions: for T/C: tumor weight
Protocol: The heteropoly acid salt (Compound M) mentioned above was dissolved in distilled water to obtain an aqueous solution containing the compound in a concentration of 10 mg/ml. This aqueous solution was administered to female C3H/He mice (five weeks old) to which MM-46 breast cancer had been transplanted, to test the compound for antineoplastic activity. To be more specific, the MM-46 breast cancer was transplanted to the mice in a ratio of 1.0 x 10^5 cells per mouse and the aqueous solution was administered (at a dose of 100 mg and a dose of 200 mg per kg of body weight) intraperitoneally (ip) or orally (po) for 9 consecutive days. After elapse of 14 days following the stop of the administration, the sizes of tumor were measured. For comparison, mice to which no aqueous solution was administered were similarly tested.

human lung cancer (OAT) = format: in vivo, female ICR/cd-1 mice; conditions: Example 39: 100 mg/kg (so in the source), IP 1~6

[NH3C3H7(iso)]s (Mo7O24] • 3H2O [Compound A]
toxicity ([1]; 200 mg/kg.ip for nine days, judged by increase of body weight, result in words): very low toxicity | Average weight of tumor ([1]; No. 1, 100 mg/kg): 451.0 ± 84.7 mg | Number of tumorless mice /total number of mice ([1]; No. 1, 100 mg/kg): 1/8 | Change in body weight ([1]; No. 1, 100 mg/kg): +2.50 (D1~D9) g | T/control ([1]; No. 1, 100 mg/kg): 0.169 | Average weight of tumor ([1]; No. 2, 50 mg/kg): 1182.1±246.8(10) mg | Number of tumorless mice /total number of mice ([1]; No. 2, 50 mg/kg): 0/10 | Change in body weight ([1]; No. 2, 50 mg/kg): +1.81 g | T/control ([1]; No. 2, 50 mg/kg): 0.414 | Average weight of tumor ([1]; No. 2, 100 mg/kg): 563.9±99.1(9) mg | Number of tumorless mice /total number of mice ([1]; No. 2, 100 mg/kg): 0/10 | Change in body weight ([1]; No. 2, 100 mg/kg): +1.97 g | T/control ([1]; No. 2, 100 mg/kg): 0.198 | Average weight of tumor ([1]; No. 2, 200 mg/kg): 1211.8±227.6(8) mg | Number of tumorless mice /total number of mice ([1]; No. 2, 200 mg/kg): 0/8 | Change in body weight ([1]; No. 2, 200 mg/kg): +1.81 g | T/control ([1]; No. 2, 200 mg/kg): 0.424 | Average weight of tumor ([1]; No. 3, 50 mg/kg): 1606.0±163.5(8) mg | Number of tumorless mice /total number of mice ([1]; No. 3, 50 mg/kg): 0/8 | Change in body weight ([1]; No. 3, 50 mg/kg): +1.68 g | T/control ([1]; No. 3, 50 mg/kg): 0.624 | Average number of days of survival (methyl cholanthrene A; No. 1, 100 mg/kg, ip×9): 42.3 ± 3.0 days | Number of toxically killed mice/total number of mice (methyl cholanthrene A; No. 1, 100 mg/kg, ip×9): 0/8 | Change in body weight (methyl cholanthrene A; No. 1, 100 mg/kg): +2.50 g | T/control (methyl cholanthrene A; No. 1, 100 mg/kg, ip×9, days of survival): 163.1 | Average number of days of survival (methyl cholanthrene A; No. 2, 50 mg/kg, ip×9): 31.8±2.2(8) days | Number of toxically killed mice/total number of mice (methyl cholanthrene A; No. 2, 50 mg/kg, ip×9): 0/8 | Change in body weight (methyl cholanthrene A; No. 2, 50 mg/kg): +1.68 g | T/control (methyl cholanthrene A; No. 2, 50 mg/kg, ip×9, days of survival): 131.8 | T/control (methyl cholanthrene A; period of survival): 63.1%

Nas [IMo6O24] • 34H2O [Compound M]
Average weight of tumor after elapse of 14 days ± SE ([2]; 100 mg/kg, ip × 9 (D1~D9)): 191.1±38.8(7) mg | toxicity ([2]; 100 mg/kg.ip for 9 consecutive days, judged by increase of body weight, result in words): very slight toxicity | Average weight of tumor 21 days after transplantation ±SE (MM-46 breast cancer; 100 mg/kg/day ip×9): 560±283(6) mg | Number of tumorless mice /total number of mice (MM-46 breast cancer; 100 mg/kg/day ip×9): 0/6 | T/C (MM-46 breast cancer; 100 mg/kg/day ip×9): 0.277 | Average weight of tumor 21 days after transplantation ±SE (MM-46 breast cancer; 200 mg/kg/day po×9): 572±76(6) mg | Number of tumorless mice /total number of mice (MM-46 breast cancer; 200 mg/kg/day po×9): 0/7 | T/C (MM-46 breast cancer; 200 mg/kg/day po×9): 0.258 | T/C (human lung cancer (OAT)): 60.0% | Tumorous activity T7/T0 (human lung cancer (OAT); group mean): 1.56±0.24 | Tumorous activity T7/T0 (human lung cancer (OAT); individual mice, 100 mg/kg): 1.25 and 1.40 and 2.05 | Tumorous activity T7 (human lung cancer (OAT); size of tumor on 7th day, individual mice, 100 mg/kg): 12.5 omu and 14.0 omu and 20.5 omu
